# Data published in patent US10344032B2, “Agents for treating neurogenic inflammation and neuropathic hyperalgesia related disorders” (PÉCSI TUDOMÁNYEGYETEM, priority 2014, dated 2019).
# Structures can show the parent of a compound that is named as a salt.
row,melting point,Structure (SMILES)
1,237.6 to 240 °C,"Cc1c(C)n(Cc2ccccc2)c2ncnc(NCCc3cccc(F)c3)c12 [Example 43, (7-Benzyl-5,6-dimethyl-7H-pyrrolo[2,3-d]pyrimidin-4-yl)-[2-(3-fluoro-phenyl)-ethyl]-amine]"
2,208 to 209.2 °C,"Cc1c(C)n(Cc2ccccc2)c2ncnc(NCCc3ccc(NC(=O)Nc4ccc(F)cc4F)cc3)c12 [Example 7, 1-{4-[2-(7-Benzyl-5,6-dimethyl-7H-pyrrolo[2,3-d]pyrimidin-4-ylamino)-ethyl]-phenyl}-3-(2,4-difluoro-phenyl)-urea]"
3,116 to 117.5 °C,"Fc1cccc(CCNc2ncnc3c2ccn3Cc2ccccc2)c1 [Example 27, (7-Benzyl-7H-pyrrolo[2,3-d]pyrimidin-4-yl)-[2-(3-fluoro-phenyl)-ethyl]-amine]"
4,118 to 120 °C,"COc1ccc(CCNc2ncnc3c2c(C)c(C)n3Cc2cccc(Cl)c2)cc1OC [Example 20, [7-(3-Chloro-benzyl)-5,6-dimethyl-7H-pyrrolo[2,3-d]pyrimidin-4-yl]-[2-(3,4-dimethoxy-phenyl)-ethyl]-amine]"
5,167.5 to 168 °C,"Cc1c(C)n(Cc2ccco2)c2ncnc(NCC(O)c3ccccc3)c12 (stereo not drawn) [Example 35, 2-(7-Furan-2-ylmethyl-5,6-dimethyl-7H-pyrrolo[2,3-d]pyrimidin-4-ylamino)-1-phenyl-ethanol]"
6,219 to 221 °C,"Cc1c(C)n(Cc2ccccc2)c2ncnc(NCCc3ccc(N4C(=O)c5ccccc5C4=O)cc3)c12 [Example 6, 2-{4-[2-(7-Benzyl-5,6-dimethyl-7H-pyrrolo[2,3-d]pyrimidin-4-ylamino)-ethyl]-phenyl}-isoindole-1,3-dione]"
7,228 to 229.5 °C,"CC(=O)Nc1ccc(CCNc2ncnc3c2ccn3Cc2ccccc2)cc1 [Example 47, N-{4-[2-(7-Benzyl-7H-pyrrolo[2,3-d]pyrimidin-4-ylamino)-ethyl]-phenyl}-acetamide]"
8,138.5 to 139 °C,"CCN(CC)C(=O)Nc1ccc(CCNc2ncnc3c2c(C)c(C)n3Cc2ccccc2)cc1 [Example 53, 3-{4-[2-(7-Benzyl-5,6-dimethyl-7H-pyrrolo[2,3-d]pyrimidin-4-ylamino)-ethyl]-phenyl}-1,1-diethyl-urea]"
9,180 to 182 °C,"Cc1c(C)n(Cc2ccccc2)c2ncnc(NCCc3ccc(NC(=O)c4ccccc4)cc3)c12 [Example 50, N-{4-[2-(7-Benzyl-5,6-dimethyl-7H-pyrrolo[2,3-d]pyrimidin-4-ylamino)-ethyl]-phenyl}-benzamide]"
10,161.9 to 162.9 °C,"Cc1c(C)n(Cc2ccccc2)c2ncnc(NCCc3ccc(NC(=O)Nc4cccc(C(F)(F)F)c4)cc3)c12 [Example 57, 1-{4-[2-(7-Benzyl-5,6-dimethyl-7H-pyrrolo[2,3-d]pyrimidin-4-ylamino)-ethyl]-phenyl}-3-(3-trifluoromethyl-phenyl)-urea]"
11,> 250 °C,"COc1ccc(CCNc2ncnc3c2c(C)c(C)n3CCCN(C)C)cc1 (as salt: salt) [Example 41, [7-(3-Dimethylamino-propyl)-5,6-dimethyl-7H-pyrrolo[2,3-d]pyrimidin-4-yl]-[2-(4-methoxy-phenyl)-ethyl]-amine]"
12,110 to 113 °C,"Cc1c(C)n(Cc2ccccc2)c2ncnc(NCCc3ccc(NC(=O)c4cccc(C(F)(F)F)c4)cc3)c12 [Example 48, N-{4-[2-(7-Benzyl-5,6-dimethyl-7H-pyrrolo[2,3-d]pyrimidin-4-ylamino)-ethyl]-phenyl}-3-trifluoromethyl-benzamide]"
13,165 to 167 °C,"Cc1c(C)n(Cc2ccco2)c2ncnc(NCCc3ccc(O)cc3)c12 [Example 59, 4-[2-(7-Furan-2-ylmethyl-5,6-dimethyl-7H-pyrrolo[2,3-d]pyrimidin-4-ylamino)-ethyl]-phenol]"
14,128.9 to 129.2 °C,"Cc1c(C)n(Cc2ccco2)c2ncnc(NCCc3ccccc3Cl)c12 [Example 31, [2-(2-Chloro-phenyl)-ethyl]-(7-furan-2-ylmethyl-5,6-dimethyl-7H-pyrrolo[2,3-d]pyrimidin-4-yl)-amine]"
15,178 to 180 °C,"COc1ccc(CCN(C)c2ncnc3c2c(C)c(C)n3Cc2cccc(Cl)c2)cc1OC [Example 22, [7-(3-Chloro-benzyl)-5,6-dimethyl-7H-pyrrolo[2,3-d]pyrimidin-4-yl]-[2-(3,4-dimethoxy-phenyl)-ethyl]-methyl-amine]"
16,119 to 120.4 °C,"COc1ccc(CCNc2ncnc3c2ccn3Cc2cncc(Br)c2)cc1OC (as salt: salt) [Example 37, [7-(5-Bromo-pyridin-3-ylmethyl)-7H-pyrrolo[2,3-d]pyrimidin-4-yl]-[2-(3,4-dimethoxy-phenyl)-ethyl]-amine]"
17,89 to 90 °C,"Cc1c(C)n(Cc2ccco2)c2ncnc(NCCc3cccc(F)c3)c12 [Example 33, [2-(3-Fluoro-phenyl)-ethyl]-(7-furan-2-ylmethyl-5,6-dimethyl-7H-pyrrolo[2,3-d]pyrimidin-4-yl)-amine]"
18,232 to 235 °C,"Cc1c(C)n(Cc2cccc(Cl)c2)c2ncnc(NCCc3cccc(F)c3)c12 [Example 19, [7-(3-Chloro-benzyl)-5,6-dimethyl-7H-pyrrolo[2,3-d]pyrimidin-4-yl]-[2-(3-fluoro-phenyl)-ethyl]-amine]"

row,melting point,Structure (SMILES)
1,112.9 to 113.3 °C,"CCN(CC)C(=O)Nc1ccc(CCNc2ncnc3c2c(C)c(C)n3Cc2cccc(Cl)c2)cc1 [Example 52, 3-(4-{2-[7-(3-Chloro-benzyl)-5,6-dimethyl-7H-pyrrolo[2,3-d]pyrimidin-4-ylamino]-ethyl}-phenyl)-1,1-diethyl-urea]"
2,158.8 to 160.9 °C,"Nc1ccc(CCNc2ncnc3c2ccn3Cc2cncc(Br)c2)cc1 [Example 11, [2-(4-Amino-phenyl)-ethyl]-[7-(5-bromo-pyridin-3-ylmethyl)-7H-pyrrolo[2,3-d]pyrimidin-4-yl]-amine]"
3,199.2 to 200.6 °C,"Oc1ccc(CCNc2ncnc3c2ccn3Cc2ccccc2)cc1 [Example 60, 4-[2-(7-Benzyl-7H-pyrrolo[2,3-d]pyrimidin-4-ylamino)-ethyl]-phenol]"
4,150 to 151.5 °C,"Cc1c(C)n(Cc2ccco2)c2ncnc(NCCc3ccc(N)cc3)c12 [Example 10, [2-(4-Amino-phenyl)-ethyl]-(7-furan-2-ylmethyl-5,6-dimethyl-7H-pyrrolo[2,3-d]pyrimidin-4-yl)-amine]"
5,195 to 197 °C,"OC(CNc1ncnc2c1ccn2Cc1ccccc1)c1ccccc1 (stereo not drawn) [Example 29, 2-(7-Benzyl-7H-pyrrolo[2,3-d]pyrimidin-4-ylamino)-1-phenyl-ethanol]"
6,156 to 158.2 °C,"COc1ccc(CCNc2ncnc3c2c(C)c(C)n3CCCN(C)C)cc1OC (as salt: salt) [Example 15, [2-(3,4-Dimethoxy-phenyl)-ethyl]-[7-(3-dimethylamino-propyl)-5,6-dimethyl-7H-pyrrolo[2,3-d]pyrimidin-4-yl]-amine]"
7,214 to 216 °C,"COc1ccc(CCNc2ncnc3c2c(C)c(C)n3Cc2cccc(Cl)c2)cc1 [Example 23, [7-(3-Chloro-benzyl)-5,6-dimethyl-7H-pyrrolo[2,3-d]pyrimidin-4-yl]-[2-(4-methoxy-phenyl)-ethyl]-amine]"
8,177.3 to 178.3 °C,"COc1ccc(CCNc2ncnc3c2ccn3Cc2ccccc2)cc1OC [Example 24, (7-Benzyl-7H-pyrrolo[2,3-d]pyrimidin-4-yl)-[2-(3,4-dimethoxy-phenyl)-ethyl]-amine]"
9,206.8 to 208.1 °C,"CC(=O)Nc1ccc(CCNc2ncnc3c2c(C)c(C)n3Cc2ccco2)cc1 [Example 46, N-{4-[2-(7-Furan-2-ylmethyl-5,6-dimethyl-7H-pyrrolo[2,3-d]pyrimidin-4-ylamino)-ethyl]-phenyl}-acetamide]"
10,210 to 211.8 °C,"c1ccc(CCNc2ncnc3c2ccn3Cc2ccccc2)cc1 [Example 26, (7-Benzyl-7H-pyrrolo[2,3-d]pyrimidin-4-yl)-phenethyl-amine]"
11,183 to 185 °C,"Cc1c(C)n(Cc2ccccc2)c2ncnc(NCCc3ccc(NS(=O)(=O)c4ccc(F)cc4F)cc3)c12 [Example 54, N-{4-[2-(7-Benzyl-5,6-dimethyl-7H-pyrrolo[2,3-d]pyrimidin-4-ylamino)-ethyl]-phenyl}-2,4-difluoro-benzenesulfonamide]"
12,> 260 °C,"Nc1ccc(CCNc2ncnc3c2ccn3Cc2ccccc2)cc1 [Example 8, [2-(4-Amino-phenyl)-ethyl]-(7-benzyl-7H-pyrrolo[2,3-d]pyrimidin-4-yl)-amine]"
13,190 to 192 °C,"Cc1c(C)n(Cc2cccc(Cl)c2)c2ncnc(NCCc3ccccc3Cl)c12 [Example 21, [7-(3-Chloro-benzyl)-5,6-dimethyl-7H-pyrrolo[2,3-d]pyrimidin-4-yl]-[2-(2-chloro-phenyl)-ethyl]-amine]"
14,151 to 152.3 °C,"Cc1c(C)n(Cc2cccc(Cl)c2)c2ncnc(NCCc3ccc(NC(=O)c4ccccc4)cc3)c12 [Example 44, N-(4-{2-[7-(3-Chloro-benzyl)-5,6-dimethyl-7H-pyrrolo[2,3-d]pyrimidin-4-ylamino]-ethyl}-phenyl)-benzamide]"
15,237.2 to 239.9 °C,"Cc1c(C)n(CCCN(C)C)c2ncnc(NCCc3ccc(N)cc3)c12 (as salt: salt) [Example 12, [2-(4-Amino-phenyl)-ethyl]-[7-(3-dimethylamino-propyl)-5,6-dimethyl-7H-pyrrolo[2,3-d]pyrimidin-4-yl]-amine]"
16,239 to 240.2 °C,"Cc1c(C)n(CCCN(C)C)c2ncnc(NCCc3cccc(F)c3)c12 (as salt: salt) [Example 17, [7-(3-Dimethylamino-propyl)-5,6-dimethyl-7H-pyrrolo[2,3-d]pyrimidin-4-yl]-[2-(3-fluoro-phenyl)-ethyl]-amine]"
17,223 to 227 °C,"Cc1c(C)n(Cc2ccccc2)c2ncnc(NCCc3ccccc3Cl)c12 [Example 42, (7-Benzyl-5,6-dimethyl-7H-pyrrolo[2,3-d]pyrimidin-4-yl)-[2-(2-chloro-phenyl)-ethyl]-amine]"
18,245 to 248 °C,"Cc1c(C)n(CCCN(C)C)c2ncnc(NCCc3ccccc3Cl)c12 (as salt: salt) [Example 16, [2-(2-Chloro-phenyl)-ethyl]-[7-(3-dimethylamino-propyl)-5,6-dimethyl-7H-pyrrolo[2,3-d]pyrimidin-4-yl]-amine]"
